Reference: ChEMBL document CHEMBL1141817, “A novel extracellular diterpenoid with antibacterial activity from the cyanobacterium Nostoc commune” (1999)
≈ marks a conversion by molar mass, not a printed value.

Columns and labels:
Type in all cases: functional
Bacillus cereus = assay: Antibacterial activity against Bacillus cereus ATCC 10702
[1] = tested on: Staphylococcus epidermidis; assay: Antibacterial activity against Staphylococcus epidermidis ATCC 12228
Escherichia coli = assay: Antibacterial activity against Escherichia coli ATCC 25922

Compound | MIC (Bacillus cereus) | MIC [1] | MIC (Escherichia coli)
C[C@@H]1CC=C2[C@@H](CC[C@H]3C(C)(C)[C@H](O)CC[C@@]23C)[C@]1(C)Cc1cc(C(=O)O)ccc1O [NOSCOMIN] | 32 µg/mL (≈ 75 µM) | 8 µg/mL (≈ 18.8 µM) | 128 µg/mL (≈ 300 µM)
O=C(N[C@H](CO)[C@H](O)c1ccc([N+](=O)[O-])cc1)C(Cl)Cl [CHLORAMPHENICOL] | 8 µg/mL (≈ 24.8 µM) | 4 µg/mL (≈ 12.4 µM) | 64 µg/mL (≈ 198 µM)
